Laboratory results reported in patent publication US5480905A, “Benzodioxane derivatives” (Chugai Seiyaku Kabushiki Kaisha, priority 1991, dated 1996).
Entries after “also recorded” stand apart in the source; their conditions may differ. Like-named read-outs stand apart in the source and are kept apart here.

How the values were obtained:
[1] = in vivo; cited from earlier work
serotonin 1A receptor = molecular target: T1, serotonin 1A receptor (Rattus norvegicus, UniProt P19327); assay: Serotonin 1A receptor binding experiment (3H-8-OH-DPAT); conditions: rat cortex and hippocampal tissue, 0.5 nM 3H-8-OH-DPAT, IC50 in M
T1 construct: the cortex and hippocampal tissue were extracted from the brain; from tissue; host or cells: brain cortex and hippocampus of 7-week-old male S.D. rats, washed membrane homogenate
T1 sequence (P19327 1-422): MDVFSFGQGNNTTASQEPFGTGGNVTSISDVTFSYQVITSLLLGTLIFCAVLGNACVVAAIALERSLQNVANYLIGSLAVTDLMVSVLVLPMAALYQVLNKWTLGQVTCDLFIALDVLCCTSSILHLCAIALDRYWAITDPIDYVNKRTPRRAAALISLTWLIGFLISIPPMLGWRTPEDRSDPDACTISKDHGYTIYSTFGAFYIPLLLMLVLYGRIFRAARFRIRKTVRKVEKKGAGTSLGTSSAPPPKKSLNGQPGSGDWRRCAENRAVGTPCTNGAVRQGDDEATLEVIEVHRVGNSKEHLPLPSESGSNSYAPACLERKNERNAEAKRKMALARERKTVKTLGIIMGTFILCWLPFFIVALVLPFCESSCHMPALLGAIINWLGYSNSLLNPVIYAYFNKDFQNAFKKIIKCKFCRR
Procedure: (§1) Affinity for intracerebral serotonin 1A and serotonin 2 receptor was checked in accordance with the method of Hall et al. (J. Neurochem., 44, 1685-1695, 1985) and the method of Leysen et al. (Mol. Pharmacol., 21, 301-314, 1982).
(§2) Stated more specifically, the cortex and hippocampal tissue were extracted from the brain of 7-wk old S.D. line male rats, mixed with 20 volumes of Tris-HCl buffer (50 mM, pH 7.7) and homogenized with a Teflon homogenizer. Thereafter, the homogenate was centrifuged at 39800×g for 20 min and the supernatant was discarded. Forty volumes of a buffer were added to the precipitate and the mixture was homogenized with a Polytron homogenizer, with the homogenate being centrifuged under the same condition as set forth above. The same procedure was repeated two more times and the final precipitate was homogenized with 40 volumes of a buffer; thereafter, the homogenate was stored at least overnight at -80° C. On the day when binding experiments were to be conducted, the homogenate was thawed at room temperature and incubated at 37° C. for 20 min to remove the endogenous serotonin.
(§3) Thereafter, centrifugation was conducted at 39800×g for 20 min and 40 volumes of a buffer were added to the precipitate, followed by homogenization. This procedure was repeated three times; to the final precipitate, a buffer was added in 65 volumes for the case of serotonin 1A receptor and in 80 volumes for the case of serotonin 2 receptor and the mixture was homogenized in preparation for the binding experiments that are described below. All procedures of experimentation except storage in a frozen state and thawing at room temperature were conducted at 4° C. or below.
A reaction solution containing 0.5 nM (final concentration) of 3H-8-hydroxy-2-(di-n-propylamino)tetralin (8-OH-DPAT), […] and 500 μl of brain homogenate in 1.0 ml (final volume) of a buffer was incubated at 25° C. for 30 min. Thereafter, the reaction solution was filtered by rapid passage through a glass filler. The filter was washed rapidly with an ice-cooled buffer (3 ml) three times, put into a scintillation vial together with a scintillation cocktail, and left to stand overnight at 4° C. On the next day, the vial was agitated well and measurements were conducted with a scintillation counter. To determine the amount of specific binding, the amount of binding in the presence of excess unlabeled serotonin (10 μM) was subtracted from the total amount of binding. As an index for the affinity of a test compound for either receptor, the concentration at which the specific binding of ^3 H-DPAT was inhibited by 50% (IC50, M) was determined using computer software EBDA/LIGAND (Biosoft).

serotonin 2 receptor = molecular target: T2, serotonin 2 receptor (Rattus norvegicus, UniProt P14842); assay: Serotonin 2 receptor binding experiment (3H-ketancerine); conditions: rat cortex and hippocampal tissue; 0.5 nM 3H-ketancerine; IC50 in M; read-out: -logIC50 5-HT2 (converted)
T2 construct: the cortex and hippocampal tissue were extracted from the brain; from tissue; host or cells: brain cortex and hippocampus of 7-week-old male S.D. rats, washed membrane homogenate
Procedure: as §1, §2, §3
A reaction solution containing 0.5 nM (final concentration) of ^3 H-ketancerine and 500 μl of brain homogenate in 1.0 ml (final volume) of a buffer was incubated at 30° C. for 30 min. Subsequent procedures were the same as in the serotonin 1A receptor binding experiment and IC50 (M) was determined accordingly. To determine the amount of specific binding, the amount of binding in the presence of excess unlabelled methysergide ([…]) was subtracted from the total amount of binding.

S.D. line male rats [2] = assay: Antidepressant effect, compelled swim test (Porsolt), time over which rats remain motionless; format: in vivo, rat; conditions: peroral 20 mg/kg; for inhibition in vivo at 20 mg/kg: Rattus norvegicus, po, 0.5 h, 30 min before swim, read-out: Antidepressant effect, Efficacy
Procedure: An antidepression test was conducted in accordance with the method of Porsolt et al. (Europ. J. Pharmacol., 47, 379-391, 1978). Stated more specifically, 7-wk old S.D. line male rats were placed in a glass cylinder (18 cm^.phi. ×40 cm^H) for 15 min. The cylinder was filled with water (25° C.) to a depth of 15 cm. Thereafter, the rats were placed in a hot environment (32° C.) for 15 min before they were returned to the cage. Twenty-four hours later, the rats were compelled again to swim in the same cylinder for 5 min and the total time over which the rats remained motionless was measured. A test drug was administered perorally to each animal 30 min before it was compelled to swim for 5 min. Antidepressant agents are known to be capable of specifically reducing the time over which the rats would remain motionless (Psyehopharmaeol., 83, 1-16, 1984, and ibid., 94, 147-160, 1988). The antidepressant effect was calculated by the following formula: [formula]
(§4) The procedure of Test Examples 2 and 3 were repeated except that test compounds were administered perorally in a dose of 10 mg/kg.
(§5) The procedures of Test Example 2 and 3 were repeated, except that test compounds were administered perorally in a dose of 20 mg/kg to check the longevity of their antianxiety and antidepressant effects for 0.5, 2 and 4 h.

S.D. line male rats [3] = assay: Antianxiety effect, water drinking under punishment (Vogel); format: in vivo, rat; design: Antianxiety effect / Antianxiety effect, longevity: unit not given here; conditions: for change in vivo at 20 mg/kg: Rattus norvegicus, po, read-out: Antianxiety effect, Efficacy; for change in vivo at 20 mg/kg / Antianxiety effect, longevity: peroral 20 mg/kg
Procedure: Antianxiety test was conducted in accordance with a method adapted from the method of Vogel et al. (Psychopharmacol., 21, 1-7, 1971). Stated more specifically, S.D. line male rats weighing 250-300 g were entirely kept from water for 24 h and then placed in a concrete experimental box. […] The bottom of the box was made of a stainless steel grid, from which electric shock (0.2 mA, 0.5 sec) could be applied to the limbs of rats. The test schedule was as follows: first, the rats were acclimatized to the experimental box and trained for drinking water; this was done for 3 min without electric shock. The quantity of water drunk by the rats was then measured (under non-punishment). Then, the rats were kept from drinking water for 24 h. Thereafter, the quantity of water drunk by each rat was measured (before administration of test compound) under such conditions that an electric shock was applied each time a rat drank one water drop (under punishment).Thirty minutes later, a test drug was administered perorally and after an additional 20 min, the quantity of water drunk by each rat was again measured under punishment (after administration of test compound). The quantity of water drunk by rats will decrease under punishment but it is known that the initial level can be restored by administering an antianxiety agent.
The antianxiety effect of a test compound was calculated by the following formula: [formula]
as §4, §5

S.D. line male rats [4] = assay: Sedative action, amount of spontaneous movement (Animex); format: in vivo, rat; conditions: for Amount of Spontaneous Movement: control 405.2 ± 47.7
Procedure: Seven-week old male S.D. line rats were administered a test drug perorally and after the passage of 30 min, the amount of spontaneous movement of the rats was measured for 10 min by means of Animex.

[5] = read-out: -logIC50 5-HT1A (converted)

T2 sequence (P14842 whole entry): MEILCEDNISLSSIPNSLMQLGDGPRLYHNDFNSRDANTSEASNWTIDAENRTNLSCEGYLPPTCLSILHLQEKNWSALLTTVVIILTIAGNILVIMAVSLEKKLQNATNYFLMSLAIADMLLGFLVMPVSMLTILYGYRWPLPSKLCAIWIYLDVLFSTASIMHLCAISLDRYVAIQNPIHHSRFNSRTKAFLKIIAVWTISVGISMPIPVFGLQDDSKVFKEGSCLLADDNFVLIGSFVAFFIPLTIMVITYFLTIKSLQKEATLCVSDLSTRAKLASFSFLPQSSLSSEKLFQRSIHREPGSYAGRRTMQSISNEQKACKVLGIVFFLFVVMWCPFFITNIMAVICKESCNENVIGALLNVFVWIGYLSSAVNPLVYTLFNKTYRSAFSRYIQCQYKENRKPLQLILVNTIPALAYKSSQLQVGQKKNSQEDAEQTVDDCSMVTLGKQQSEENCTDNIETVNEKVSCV

CC1(C)CC(=O)N(CCCCN2CCN(c3ncccn3)CC2)C(=O)C1 [Gepirone]
Antianxiety/antidepressant action (words, background) [1]: only weak antidepressant and antianxiety effects; also recorded: both antianxiety and antidepressant effects | Side effects (words, background) [1]: either lower ultromotivity (probably due to the dopamine antagonistic action) or serotonin syndrome

Nc1ccc2c(c1)OC(CNCCNC(=O)C13CC4CC(CC(C4)C1)C3)CO2 (stereo not drawn) [Compound 12, N-{[2-(7-amino-1,4-benzodioxan-2-ylmethyl)amino]ethyl}tricyclo[3,3,1,1^3, ^7]decane-1-carboxyamide]
IC50 (serotonin 1A receptor; [5]): 0.398 nM | IC50 (serotonin 2 receptor): 200 nM | inhibition in vivo at 20 mg/kg (S.D. line male rats [2]): 57 ± 5.9% | Antidepressant effect (S.D. line male rats [2]): almost comparable effects to WY-50324 | Antianxiety effect (S.D. line male rats [3]; peroral 10 mg/kg): 52.1 ± 2.5 | Antianxiety and antidepressant effects (S.D. line male rats [3]; peroral 10 mg/kg, Table 6): superiority

O=C1C2C3CCC(C3)C2C(=O)N1CCCCN1CCN(c2ncccn2)CC1 (stereo not drawn) [SM-3997, reference compound]
IC50 (serotonin 1A receptor; -logIC50 5-HT1A): 31.6 nM | IC50 (serotonin 2 receptor): 550 nM | inhibition in vivo at 20 mg/kg (S.D. line male rats [2]): -10.5 ± 10.6% | change in vivo at 20 mg/kg (S.D. line male rats [3]): 48.5 ± 15.8%

O=C1CC2(CCCC2)CC(=O)N1CCNCC1COc2ccccc2O1 (stereo not drawn) [MDL-73005, reference compound]
IC50 (serotonin 1A receptor; [5]): 36.3 nM | IC50 (serotonin 2 receptor): > 1000 nM | inhibition in vivo at 20 mg/kg (S.D. line male rats [2]): 28.3 ± 10.9% | Antidepressant effect (S.D. line male rats [2]): extremely weak antidepressant effect | change in vivo at 20 mg/kg (S.D. line male rats [3]): 67.6 ± 5.5% | Antianxiety effect, longevity (S.D. line male rats [3]; 0.5 h after administration): 44.9 | Antianxiety effect, longevity (S.D. line male rats [3]; 2.0 h after administration): 17.0 | Antianxiety effect, longevity (S.D. line male rats [3]; 4.0 h after administration): 8.1 | Amount of Spontaneous Movement (S.D. line male rats [4]; 20 mg/kg peroral): 395.8 Counts/10 min | Amount of Spontaneous Movement (S.D. line male rats [4]; 40 mg/kg peroral): 331.5 Counts/10 min | Amount of Spontaneous Movement (S.D. line male rats [4]; 60 mg/kg peroral): 335.0 Counts/10 min | Sedative action / spontaneous movement (S.D. line male rats [4]; peroral 20-60 mg/kg): no appreciable sedative action
